Patent US8044211B2 (Chroma Therapeutics Ltd., priority 2006, dated 2011)

molecular target: T1, p38 MAP Kinase a (Homo sapiens, UniProt Q16539); test: p38 MAP Kinase activity, radiometric filter-binding assay (Upstate); type: biochemical; settings: IC50 range; ATP at or close to Km; read-out: Inhibitor activity versus p38 MAPKa
T1 construct: purchased Upstate (Dundee UK)
Experimental: The ability of compounds to inhibit p38 MAP a Kinase activity was measured in an assay performed by Upstate (Dundee UK). In a final reaction volume of 25 μL, p38 MAP Kinase a (5-10 mU) is incubated with 25 mM Tris pH 7.5, 0.002 mMEGTA, 0.33 mg/mL myelin basic protein, 10 mM MgAcetate and [g-33P-ATP] (specific activity approx. 500 cpm/pmol, concentration as required). The reaction is initiated by the addition of the MgATP mix. After incubation for 40 minutes at room temperature, the reaction is stopped by the addition of 5 μL of a 3% phosphoric acid solution. 10 μL of the reaction is then spotted onto a P30 filtermat and washed three times for 5 minutes in 75 mM phosphoric acid and once in methanol prior to drying and scintillation counting.
Duplicate data points are generated from a ⅓ log dilution series of a stock solution in DMSO. Nine dilutions steps are made from a top concentration of 10 μM, and a ‘no compound’ blank is included. The standard radiometric filter-binding assay is performed at an ATP concentration at, or close to, the Km. Data from scintillation counts are collected and subjected to free-fit analysis by Prism software. From the curve generated, the concentration giving 50% inhibition is determined and reported.

T1 sequence (Q16539 whole entry): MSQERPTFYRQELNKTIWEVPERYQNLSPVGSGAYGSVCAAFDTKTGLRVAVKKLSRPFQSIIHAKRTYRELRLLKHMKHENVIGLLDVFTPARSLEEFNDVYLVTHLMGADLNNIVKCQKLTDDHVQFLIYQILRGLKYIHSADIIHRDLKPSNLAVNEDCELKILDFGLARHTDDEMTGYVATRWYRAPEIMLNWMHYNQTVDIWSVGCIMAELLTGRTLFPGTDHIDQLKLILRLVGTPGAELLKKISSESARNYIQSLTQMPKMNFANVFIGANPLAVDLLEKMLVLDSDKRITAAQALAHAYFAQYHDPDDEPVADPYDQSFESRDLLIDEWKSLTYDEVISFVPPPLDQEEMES

Structure (SMILES)	IC50
CC(C)C[C@H](NCCc1ccc(-n2c(N)c(C(=O)c3ccc(F)cc3F)ccc2=O)cc1)C(=O)O [Example 117, N-[2-(4-{6-amino-5-[(2,4-difluorophenyl)carbonyl]-2-oxopyridin-1(2H)-yl}phenyl)ethyl]-L-leucine]	< 100 nM
CC(C)C[C@H](NCCCOc1ccc(-n2c(N)c(C(=O)c3ccc(F)cc3F)ccc2=O)cc1)C(=O)O [Example 96, (S)-2-(3-{4-[6-Amino-5-(2,4-difluorobenzoyl)-2-oxo-2H-pyridin-1-yl]phenoxy}propylamino)-4-methyl pentanoic acid]	< 100 nM
CC(C)C[C@H](NCCCOc1cc(F)c(-n2c(N)c(C(=O)c3ccc(F)cc3)ccc2=O)c(F)c1)C(=O)O [Example 91]	< 100 nM
CC(C)C[C@H](NCCCCCOc1cc(F)c(-n2c(N)c(C(=O)c3ccc(F)cc3)ccc2=O)c(F)c1)C(=O)O [Example 109, N-(5-{4-[6-amino-5-(4-fluorobenzoyl)-2-oxopyridin-1(2H)-yl]-3,5-difluorophenoxy}pentyl)-L-leucine]	< 100 nM
Nc1c(C(=O)c2ccc(F)cc2)ccc(=O)n1-c1c(F)cc(OCCCN[C@@H](Cc2ccccc2)C(=O)O)cc1F [Example 90]	< 100 nM
Cc1cc(C(=O)c2ccc(=O)n(-c3c(F)cc(OCCCN[C@@H](CC(C)C)C(=O)O)cc3F)c2N)ccc1F [Example 98, (S)-2-(3-{4-[6-Amino-5-(4-fluoro-3-methylbenzoyl)-2-oxo-2H-pyridin-1-yl]-3,5-difluorophenoxy}propylamino)-4-methylpentanoic acid]	< 100 nM
CC(C)C[C@H](NCCCOc1ccc(-n2c(N)c(C(=O)c3ccc(F)cc3)ccc2=O)cc1)C(=O)O [Example 85, (S)-2-(3-{4-[6-Amino-5-(4-fluorobenzoyl)-2-oxo-2H-pyridin-1-yl]phenoxy}propylamino)-4-methylpentanoic acid]	< 100 nM
Nc1c(C(=O)c2ccc(F)cc2F)ccc(=O)n1-c1c(F)cc(OCCCN[C@@H](Cc2ccccc2)C(=O)O)cc1F [Example 100, (S)-2-(3-{4-[6-Amino-5-(2,4-difluorobenzoyl)-2-oxo-2H-pyridin-1-yl]-3,5-difluorophenoxy}-propylamino)-3-phenyl propionic acid]	< 100 nM
CC(C)C[C@@H](NCCCOc1cc(F)c(-n2c(N)c(C(=O)c3ccc(F)cc3F)ccc2=O)c(F)c1)C(=O)O [Example 108, N-(3-{4-[6-amino-5-(2,4-difluorobenzoyl)-2-oxopyridin-1(2H)-yl]-3,5-difluorophenoxy}propyl)-D-leucine]	< 100 nM
Nc1c(C(=O)c2ccc(F)cc2)ccc(=O)n1-c1c(F)cc(OC2CCC(N[C@H](C(=O)O)c3ccccc3)CC2)cc1F (stereo partly drawn) [Example 103, (2S)-[(4-{4-[6-amino-5-(4-fluorobenzoyl)-2-oxopyridin-1(2H)-yl]-3,5-difluorophenoxy}cyclohexyl)amino](phenyl)acetic acid]	< 100 nM
CC(C)C[C@H](NC1CCC(Oc2cc(F)c(-n3c(N)c(C(=O)c4ccc(F)cc4)ccc3=O)c(F)c2)CC1)C(=O)O (stereo partly drawn) [Example 104, N-(4-{4-[6-amino-5-(4-fluorobenzoyl)-2-oxopyridin-1(2H)-yl]-3,5-difluorophenoxy}cyclohexyl)-L-leucine]	< 100 nM
CC(C)C[C@H](NCc1cc(F)c(-n2c(N)c(C(=O)c3ccc(F)cc3F)ccc2=O)c(F)c1)C(=O)O [Example 101]	< 100 nM
Nc1c(C(=O)c2ccc(F)cc2)ccc(=O)n1-c1c(F)cc(OC2CCC(N[C@@H](Cc3ccccc3)C(=O)O)CC2)cc1F (stereo partly shown) [Example 102]	< 100 nM
Nc1c(C(=O)c2ccc(F)cc2F)ccc(=O)n1-c1c(F)cc(OCCCN[C@H](C(=O)O)C2CCCCC2)cc1F [Example 107, (2S)-[(3-{4-[6-amino-5-(2,4-difluorobenzoyl)-2-oxopyridin-1(2H)-yl]-3,5-difluorophenoxy}propyl)amino](cyclohexyl)acetic acid]	< 100 nM

Further lines, results first:

IC50	Structure (SMILES)
100 to 1000 nM	Cc1cc(C(=O)c2ccc(=O)n(-c3ccc(CN[C@@H](CC(C)C)C(=O)O)cc3)c2N)ccc1F [Example 81, (S)-2-{4-[6-Amino-5-(3-Methyl-4-fluorobenzoyl)-2-oxo-2H-pyridin-1-yl]benzylamino}-4-methylpentanoic acid]
< 100 nM	Nc1c(C(=O)c2ccc(F)cc2F)ccc(=O)n1-c1ccc(CN[C@H](C(=O)O)c2ccccc2)cc1 [Example 72, (S)-{4-[6-Amino-5-(2,4-difluorobenzoyl)-2-oxo-2H-pyridin-1-yl]benzylamino}phenylacetic acid]
< 100 nM	Cc1cc(C(=O)c2ccc(=O)n(-c3ccc(OCCCN[C@@H](CC(C)C)C(=O)O)cc3)c2N)ccc1F [Example 88, (S)-2-(3-{4-[6-Amino-5-(4-fluoro-3-methylbenzoyl)-2-oxo-2H-pyridin-1-yl]phenoxy}propylamino)-4-methylpentanoic acid]
< 100 nM	Nc1c(C(=O)c2ccc(F)cc2F)ccc(=O)n1-c1ccc(CN[C@@H](Cc2ccccc2)C(=O)O)cc1 [Example 73, (S)-2-{4-[6-Amino-5-(2,4-difluorobenzoyl)-2-oxo-2H-pyridin-1-yl]benzylamino}-3-phenylpropionic acid]
> 1000 nM	Nc1c(C(=O)c2ccc(F)cc2F)ccc(=O)n1-c1ccc(OCCCN[C@@H](Cc2ccccc2)C(=O)O)cc1 [Example 86, (S)-2-(3-{4-[6-Amino-5-(2,4-difluorobenzoyl)-2-oxo-2H-pyridin-1-yl]phenoxy}propylamino)-3-phenyl propionic acid]
100 to 1000 nM	Nc1c(C(=O)c2ccc(F)cc2)ccc(=O)n1-c1ccc(CN[C@@H](Cc2ccccc2)C(=O)O)cc1 [Example 78, (S)-2-{4-[6-Amino-5-(4-fluorobenzoyl)-2-oxo-2H-pyridin-1-yl]benzylamino}-3-phenylpropionic acid]
< 100 nM	Nc1c(C(=O)c2ccc(F)cc2)ccc(=O)n1-c1ccc(OCCCN[C@@H](Cc2ccccc2)C(=O)O)cc1 [Example 82]
< 100 nM	Nc1c(C(=O)c2ccc(F)cc2F)ccc(=O)n1-c1c(F)cc(OCCCN[C@H](C(=O)O)c2ccccc2)cc1F [Example 95, (S)-(3-{4-[6-Amino-5-(2,4-difluorobenzoyl)-2-oxo-2H-pyridin-1-yl]-3,5-difluorophenoxy}propylamino)phenyl acetic acid]
< 100 nM	Cc1cc(C(=O)c2ccc(=O)n(-c3c(F)cc(OCCCN[C@@H](Cc4ccccc4)C(=O)O)cc3F)c2N)ccc1F [Example 93, (S)-2-(3-{4-[6-Amino-5-(4-fluoro-3-methylbenzoyl)-2-oxo-2H-pyridin-1-yl]-3,5-difluorophenoxy}propylamino)-3-phenylpropionic acid]
< 100 nM	Nc1c(C(=O)c2ccc(F)cc2F)ccc(=O)n1-c1c(F)cc(OCCCN[C@@H](C(=O)O)c2ccccc2)cc1F [Example 106, (R)-(3-{4-[6-Amino-5-(2,4-difluorobenzoyl)-2-oxo-2H-pyridin-1-yl]-3,5-difluorophenoxy}propylamino)phenyl acetic acid]
< 100 nM	Nc1c(C(=O)c2ccc(F)cc2)ccc(=O)n1-c1c(F)cc(CN[C@@H](Cc2ccccc2)C(=O)O)cc1F [Example 92]
< 100 nM	CC(C)C[C@H](NCc1ccc(-n2c(N)c(C(=O)c3ccc(F)cc3F)ccc2=O)cc1)C(=O)O [Example 74, (S)-2-{4-[6-Amino-5-(2,4-difluorobenzoyl)-2-oxo-2H-pyridin-1-yl]benzylamino}-4-methylpentanoic acid]
< 100 nM	Cc1cc(C(=O)c2ccc(=O)n(-c3c(F)cc(OCCCN[C@H](C(=O)O)c4ccccc4)cc3F)c2N)ccc1F [Example 99, (S)-(3-{4-[6-Amino-5-(4-fluoro-3-methylbenzoyl)-2-oxo-2H-pyridin-1-yl]-3,5-difluorophenoxy}propylamino)phenylacetic acid]
100 to 1000 nM	Cc1cc(C(=O)c2ccc(=O)n(-c3ccc(OCCCN[C@H](C(=O)O)c4ccccc4)cc3)c2N)ccc1F [Example 87]
100 to 1000 nM	CC(C)C[C@H](NCc1ccc(-n2c(N)c(C(=O)c3ccc(F)cc3)ccc2=O)cc1)C(=O)O [Example 79, (S)-2-{4-[6-Amino-5-(4-fluorobenzoyl)-2-oxo-2H-pyridin-1-yl]benzylamino}-4-methylpentanoic acid]
< 100 nM	Nc1c(C(=O)c2ccc(F)cc2)ccc(=O)n1-c1ccc(CCN[C@H](C(=O)O)c2ccccc2)cc1 [Example 118]
< 100 nM	Cc1cc(C(=O)c2ccc(=O)n(-c3ccc(CN[C@@H](Cc4ccccc4)C(=O)O)cc3)c2N)ccc1F [Example 80, (S)-2-{4-[6-Amino-5-(3-methyl-4-fluorobenzoyl)-2-oxo-2H-pyridin-1-yl]benzylamino}-3-phenylpropionic acid]
< 100 nM	Nc1c(C(=O)c2ccc(F)cc2)ccc(=O)n1-c1c(F)cc(OCCCN[C@H](C(=O)O)c2ccccc2)cc1F [Example 89]
< 100 nM	Nc1c(C(=O)c2ccc(F)cc2F)ccc(=O)n1-c1ccc(OCCCN[C@H](C(=O)O)c2ccccc2)cc1 [Example 84, (S)-(3-{4-[6-Amino-5-(2,4-difluorobenzoyl)-2-oxo-2H-pyridin-1-yl]-phenoxy}propylamino)phenyl acetic acid]
100 to 1000 nM	Cc1cc(C(=O)c2ccc(=O)n(-c3ccc(CN[C@H](C(=O)O)c4ccccc4)cc3)c2N)ccc1F [Example 76, (S)-{4-[6-Amino-5-(3-methyl-4-fluorobenzoyl)-2-oxo-2H-pyridin-1-yl]benzylamino}phenylacetic acid]
